Test results: article PMC11714206, “Massively Parallel Screening of Toll/Interleukin‐1 Receptor (TIR)‐Derived Peptides Reveals Multiple Toll‐Like Receptors (TLRs)‐Targeting Immunomodulatory Peptides” (Advanced Science, 2024)
Several values for one entry are separate records, joined by “and”; a condition that tells them apart may be missing. Equal values may be shown once.

Biological target: T1, MAL^TIR (Homo sapiens, UniProt P58753)
T1 construct: MAL (residues 79–221); 6xHis; made in house; host or cells: E. coli BL21 (DE3)
T1 sequence (P58753 79-221): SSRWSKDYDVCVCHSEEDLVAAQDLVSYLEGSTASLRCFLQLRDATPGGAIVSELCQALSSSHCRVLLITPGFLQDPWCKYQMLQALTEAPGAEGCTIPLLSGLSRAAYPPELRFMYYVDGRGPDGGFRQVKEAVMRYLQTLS
Experiment: T‐Surf phage library (P8 and P3) selection against MAL^TIR, four rounds, NGS read counts
Assay type: binding
Settings: for P8_MAL Rank (after) / P8_MAL Rank (before): P8 library; for P3_MAL Rank (after) / P3_MAL Rank (before): P3 library; for Population: 4th round of selection against MAL TIR, share of NGS reads
How it was run: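 P8 and P3 T‐Surf libraries panned against plate-coated TIR domains (5 µg mL^−1), 1 h binding at RT, acid elution and TG1/helper-phage amplification per round. After four rounds, pools were PCR-barcoded and sequenced (NovaSeq, 100 bp paired-end, Phred ≥30); peptides ranked by read counts.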

[1] = selection against MAL, rank by count after grouping
[2] = selection against MAL, rank by count before grouping
[3] = P8_MAL: rank by count after grouping
[4] = P8_MAL: rank by count before grouping
[5] = 4R selection against MAL, rank after grouping
[6] = 4R selection against MAL, rank before grouping
[7] = P8_MAL pool: P8 T-Surf phage library
[8] = P3_MAL pool: P3 T-Surf phage library
[9] = selection against MAL, rank after grouping
[10] = selection against MAL, rank before grouping
[11] = P3_MAL: rank by count after grouping
[12] = P3_MAL: rank by count before grouping
[13] = selection against MAL TIR, rank by count after grouping
[14] = selection against MAL TIR, rank by count before grouping

GLSWGPYEWWMGLYDA
P8_MAL Rank (after) [1]: 716
P8_MAL Rank (before) [2]: 1572

TFLGHLYNALVQAAF
Rank (after) [3]: 453
Rank (before) [4]: 2584

RNFVAYLLQALANKSI
Rank (after) [3]: 405
Rank (before) [4]: 2222

HQSFWARTWAALIAPS
P3_MAL Rank (after) [1]: 724
P3_MAL Rank (before) [2]: 2849

VEQTQVRKPSGAVENA
P3_MAL Rank (after) [5]: 627
P3_MAL Rank (before) [6]: 1687

WLYERLVSLILRDTKV
Population [7]: 0.00402% and 0.00371%

YAFTGHLHSYLVQRGV
Population [8]: 0.00338%

YFLHFLLFSLPENECI
P8_MAL Rank (after) [9]: 544
P8_MAL Rank (before) [10]: 1474

RGFLYQAFAREGFKIFM
P3_MAL Rank (after) [5]: 581
P3_MAL Rank (before) [6]: 2353

WFYERLVRLILRDTKV
Population [7]: 0.00309%

HHNSSYGEALAEHEKR
Rank (after) [11]: 167
Rank (before) [12]: 2817

YFWHALKNALAEHEKR
P3_MAL Rank (after) [5]: 674
P3_MAL Rank (before) [6]: 1334

KERLHQWKLALTQAPI
P3_MAL Rank (after) [5]: 661
P3_MAL Rank (before) [6]: 3604

ERILNQLRRSSQSIAK
Rank (after) [11]: 421
Rank (before) [12]: 2078

AFFWEQLRTVLRKPTT
P8_MAL Rank (after) [5]: 631
P8_MAL Rank (before) [6]: 1693

DQWRNALTAAANLSGW
Population [8]: 0.00526%

KEVEGWRDALSSIASRP
Rank (after) [11]: 163
Rank (before) [12]: 685

AFFWPKLKSGLGNPTM
P8_MAL Rank (after) [5]: 635
P8_MAL Rank (before) [6]: 1717

AFCIRRLRVKALRFS
P3_MAL Rank (after) [9]: 569
P3_MAL Rank (before) [10]: 1783

WFLSAFLIPMAQLADT
Rank (after) [3]: 412
Rank (before) [4]: 1352

SEFIQKITLGMNPKIG
P8_MAL Rank (after) [5]: 673
P8_MAL Rank (before) [6]: 2481

LELGDPYFWSKLRYAM
Rank (after) [11]: 453
Rank (before) [12]: 2129

LKWGDPYFWIKLRYTM
P3_MAL Rank (after) [13]: 233
P3_MAL Rank (before) [14]: 2212

YAFTGHLHRYLVQRFA
P3_MAL Rank (after) [9]: 514
P3_MAL Rank (before) [10]: 1393

RNFAGQLAGLTLQNGDEGK
P3_MAL Rank (after) [5]: 607
P3_MAL Rank (before) [6]: 2604

LFYERLVSLMLRDTKG
P8_MAL Rank (after) [13]: 274
P8_MAL Rank (before) [14]: 1105

WFYERLVSLIMRATKV
Rank (after) [3]: 117
Rank (before) [4]: 1222

PNLRTKVLNYLMRNKT
Population [8]: 0.00526%

DHHLNPPPGKAIKPEMLG
Rank (after) [11]: 442
Rank (before) [12]: 1951

AFLYTFLISLTHPTNF
Population [7]: 0.00402%

LKWGDPYFWRKIRYAM
P3_MAL Rank (after) [9]: 530
P3_MAL Rank (before) [10]: 2248

WFLFTVRSAIYSISRA
P8_MAL Rank (after) [1]: 692
P8_MAL Rank (before) [2]: 1346

YQWRNALTAAANLSGW
Population [8]: 0.00676%

LFFWARLKNVLGSAGS
P8_MAL Rank (after) [9]: 557
P8_MAL Rank (before) [10]: 2064

AFSNNEYKCVETALMN
Rank (after) [11]: 467
Rank (before) [12]: 1806

AILYTFLINLTLPANF
P8_MAL Rank (after) [1]: 682
P8_MAL Rank (before) [2]: 1576

TLLDHLCNELVQAGIH
P8_MAL Rank (after) [1]: 721
P8_MAL Rank (before) [2]: 2639

AFFCTQLKSVLGNPTI
P8_MAL Rank (after) [5]: 587
P8_MAL Rank (before) [6]: 1588

DAEDMFWTQLREALDA
P8_MAL Rank (after) [5]: 602
P8_MAL Rank (before) [6]: 1987

WFMMTFRTVLHHVHDV
Rank (after) [3]: 425
Rank (before) [4]: 1374

RNNFIGHLYQAPNQSV
P8_MAL Rank (after) [1]: 699
P8_MAL Rank (before) [2]: 2283

RNFVAHLFQALANKAI
P8_MAL Rank (after) [5]: 667
P8_MAL Rank (before) [6]: 2233

TFLGHLYNSLVQAGTH
P8_MAL Rank (after) [5]: 633
P8_MAL Rank (before) [6]: 2563

YAASPWWFDELVKIVG
Rank (after) [3]: 390
Rank (before) [4]: 1526

LVFWESLKHLLRSDDR
P8_MAL Rank (after) [5]: 636
P8_MAL Rank (before) [6]: 2163

SSFRNDLWRLLELSKK
Rank (after) [11]: 419
Rank (before) [12]: 3195

AFFWARLQSVLGNPTM
P8_MAL Rank (after) [13]: 243
P8_MAL Rank (before) [14]: 1654

SPRKNLVSNLIEEFTR
P3_MAL Rank (after) [13]: 252
P3_MAL Rank (before) [14]: 3108

NDVEGCRDALTKVASL
P3_MAL Rank (after) [1]: 679
P3_MAL Rank (before) [2]: 3278

AFFWAQLKSVLRTQTM
P8_MAL Rank (after) [1]: 696
P8_MAL Rank (before) [2]: 1633

YAFTGHLHRYHLPAPQH
P3_MAL Rank (after) [13]: 277
P3_MAL Rank (before) [14]: 739

RLLKWKEALKQRAL
P3_MAL Rank (after) [9]: 518
P3_MAL Rank (before) [10]: 2525

EKIVEWVWEKAHNRFK
P3_MAL Rank (after) [1]: 770
P3_MAL Rank (before) [2]: 2080

NLWKLWTKPGGVRDDR
P3_MAL Rank (after) [5]: 618
P3_MAL Rank (before) [6]: 3319

PNLRTKGLNYRMRTKT
Rank (after) [11]: 415
Rank (before) [12]: 2736

WSLFTVRSVLYAMSPA
P8_MAL Rank (after) [9]: 518
P8_MAL Rank (before) [10]: 1407

AFLYTFLIILPIRPNF
P8_MAL Rank (after) [5]: 589
P8_MAL Rank (before) [6]: 1835

RAFVAHPQELIQKKQQ
P3_MAL Rank (after) [1]: 739
P3_MAL Rank (before) [2]: 2454

WFMMKFRTVLDRVPEV
P8_MAL Rank (after) [9]: 482
P8_MAL Rank (before) [10]: 1378

AFLCDQLSTLMDPPTF
P8_MAL Rank (after) [9]: 578
P8_MAL Rank (before) [10]: 1805

WFYERLVGLIMRDTKV
Rank (after) [3]: 129
Rank (before) [4]: 1172

SEFIQKIILWMNLKNQ
P8_MAL Rank (after) [5]: 581
P8_MAL Rank (before) [6]: 2466

ACFWEQRPTVLGKPPM
Rank (after) [3]: 417
Rank (before) [4]: 1934

LFFWEHLKQLLRNDGR
P8_MAL Rank (after) [9]: 513
P8_MAL Rank (before) [10]: 2073

AFLYTFLINLTHPTTF
Population [7]: 0.0034%

LKWGDPYFWSNCVMR
P3_MAL Rank (after) [1]: 699
P3_MAL Rank (before) [2]: 2216

YAFTSHLYDRLPAPQH
P3_MAL Rank (after) [9]: 554
P3_MAL Rank (before) [10]: 1469

WFYERLVSLIQRDTTV
P8_MAL Rank (after) [13]: 212
P8_MAL Rank (before) [14]: 1278

SSFREGLWRLPELCKK
Rank (after) [11]: 430
Rank (before) [12]: 3163

WFYERPVSLILRDTIV
Rank (after) [3]: 153
Rank (before) [4]: 1256

RGFMSHLRHPLQAKDH
P3_MAL Rank (after) [5]: 616
P3_MAL Rank (before) [6]: 2412

ELLLSVFMTLSAPRTV
P8_MAL Rank (after) [9]: 577
P8_MAL Rank (before) [10]: 2043

AFLYSFLTNLTHPTEN
P8_MAL Rank (after) [9]: 494
P8_MAL Rank (before) [10]: 1818

WFYERLVGLILRETEG
P8_MAL Rank (after) [5]: 660
P8_MAL Rank (before) [6]: 1163

KLFQQWIELHLHQLHL
Rank (after) [3]: 436
Rank (before) [4]: 2724

ESILNQLRRSSQSMR
P3_MAL Rank (after) [13]: 202
P3_MAL Rank (before) [14]: 2061

DWFLSKLSQHSLKLEK
P3_MAL Rank (after) [1]: 718
P3_MAL Rank (before) [2]: 1894

GWFREGLWRLLELSKK
P3_MAL Rank (after) [13]: 279
P3_MAL Rank (before) [14]: 1756

AFLYTFLINLAHPTNF
Population [7]: 0.00278%

SSFREGLWRRLELSKK
Population [8]: 0.00488%

WFYKPLVSLILRDTKA
P8_MAL Rank (after) [5]: 619
P8_MAL Rank (before) [6]: 1307

WFYERLVSLFLRDTKV
Population [7]: 0.00371%

AFFCAQQKSVLRNPTK
P8_MAL Rank (after) [9]: 516
P8_MAL Rank (before) [10]: 1725

YAFPFHLFSCPELRGV
P3_MAL Rank (after) [1]: 742
P3_MAL Rank (before) [2]: 1345

RLLKWKEALQQFHSGV
Rank (after) [11]: 177
Rank (before) [12]: 2497
